Key:
[1] = molecular target: T1, recombinant human acetylcholinesterase mutant ser/r-met-AChE (serine instead of cysteine at position 611, additional N-terminal methionine); SEQ ID NO:1 numberin (Homo sapiens, UniProt P22303, C611S); assay: Inhibitor specificity: enzyme reacted five minutes with inhibitor, then acetylthiocholine added (Ellman assay); format: biochemical; conditions: increasing dosages from 0.8×10^-8 M to 0.8×10^-6 M; dose-dependent
T1 construct: made in house; host or cells: E. coli S.phi.930 harboring pMLF-52ser
Procedure: (§1) AChE activity was assayed by the spectrophotometric method of Ellman using acetylthiocholine as substrate (Ellman, G.L. et al. ([…]) Biochem. Pharm. 7: 88-95)). Acetylthiocholine hydrolysis generates free thiocholine which reacts with Ellman reagent (DTNB) to produce a yellow chromophore. The concentration of the yellow chromophore is determined by the absorption at 412 nm and is proportional to the amount of AChE present. One enzyme unit (U) is the amount of enzyme which hydrolyses 1 μmole of substrate per minute. The extinction coefficient of 1 M chromophore is […]. Specific activity is expressed as U/mg protein.
(§2) The authenticity of the activity of the refolded r-met-AChE and ser/r-met-AChE was verified by testing the refolded protein with two different substrates and a specific inhibitor. Acetylthiocholine (the specific substrate), and butyrylthiocholine (the BuChE substrate), and a specific inhibitor BW-284C51 (see Background of the Invention) were tested to see whether the recombinant enzyme retained the specific characteristics of the naturally-occurring enzyme. The enzyme was assayed with each of the two substrates, or first reacted for five minutes with the specific inhibitor BW-284651 and then the specific substrate was added to the reaction mix. […] Since the butyrylthiocholine was present at a 20-fold higher concentration than acetylthiocholine it is seen that the enzymatic activity towards the butyrylthiocholine is 200-fold less than towards the specific substrate. No activity at all was detected towards the 0.05 mM butyrylthiocholine.

[2] = molecular target: T2, recombinant human acetylcholinesterase mutant ser/r-met-AChE (serine instead of cysteine at position 611, additional N-terminal methionine; SEQ ID NO:1 numbering) (Homo sapiens, UniProt P22303, C611S); assay: as above; format: biochemical; conditions: substrate acetylthiocholine, non-purified enzyme
T2 construct: made in house; host or cells: E. coli S.phi.930 harboring pMLF-52ser
Procedure: as §1, §2

[3] = test system: CC(=O)SCC[N+](C)(C)C; assay: purified protein, by the assay type; conditions: other: refolded enzyme; Lineweaver-Burk plot (FIG. 8); pH 8.0
Procedure: Lineweaver-Burk Plot of ser/r-met-AChE Enzyme kinetics were determined for the mutant rAChE using acetylthiocholine as substrate.
AChE activity was assayed by the spectrophotometric method of Ellman using acetylthiocholine as substrate (Ellman, G.L. et al. (1981) Biochem. Pharm. 7: 88-95)). Acetylthiocholine hydrolysis generates free thiocholine which reacts with Ellman reagent (DTNB) to produce a yellow chromophore. The concentration of the yellow chromophore is determined by the absorption at 412 nm and is proportional to the amount of AChE present. One enzyme unit (U) is the amount of enzyme which hydrolyses 1 μmole of substrate per minute. The extinction coefficient of 1 M chromophore is 13.6×10^4. Specific activity is expressed as U/mg protein.

T2 sequence (P22303 32-614 C611S): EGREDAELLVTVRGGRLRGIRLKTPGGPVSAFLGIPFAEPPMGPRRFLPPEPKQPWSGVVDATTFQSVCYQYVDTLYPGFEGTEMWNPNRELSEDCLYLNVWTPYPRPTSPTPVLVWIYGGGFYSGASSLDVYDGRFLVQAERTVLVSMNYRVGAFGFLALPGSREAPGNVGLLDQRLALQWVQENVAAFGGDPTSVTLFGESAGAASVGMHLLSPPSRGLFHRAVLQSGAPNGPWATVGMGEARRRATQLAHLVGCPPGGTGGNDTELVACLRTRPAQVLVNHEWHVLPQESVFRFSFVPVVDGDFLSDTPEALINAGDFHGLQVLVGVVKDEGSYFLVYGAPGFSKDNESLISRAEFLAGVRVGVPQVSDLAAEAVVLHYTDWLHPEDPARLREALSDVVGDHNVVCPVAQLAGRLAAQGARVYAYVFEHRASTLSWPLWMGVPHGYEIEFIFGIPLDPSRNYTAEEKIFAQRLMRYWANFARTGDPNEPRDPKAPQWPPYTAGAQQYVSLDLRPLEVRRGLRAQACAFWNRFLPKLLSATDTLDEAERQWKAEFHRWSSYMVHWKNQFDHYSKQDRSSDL
T1 sequence (P22303 32-614 C611S): as above

Molecule | inhibition [1] | inhibition at 0.8 µM ([2]; BW284C51 0.8 × 10^-6 M) | inhibition at 0.08 µM ([2]; BW284C51 0.8 × 10^-7 M) | inhibition at 0.008 µM ([2]; BW284C51 0.8 × 10^-8 M) | Km [3]
C=CC[N+](C)(C)c1ccc(CCC(=O)CCc2ccc([N+](C)(C)CC=C)cc2)cc1 [BW284C51] | 57%-100% | 100% | 87% | 55% | –
recombinant human acetylcholinesterase mutant ser/r-met-AChE (serine instead of cysteine at position 611, additional N-terminal methionine; SEQ ID NO:1 numbering) (Homo sapiens; C611S) | – | – | – | – | 100 µM

Reference: patent US5248604A, “Enzymatically active recombinant human acetylcholinesterase and hosts and vectors for expression thereof” (priority 1991, dated 1993)
